Results: patent US20090012103A1, “SUBSTITUTED HETEROCYCLIC COMPOUNDS” (priority 2007, published 2009)

molecular target: wild-type human cardiac sodium channel, hNav1.5 (Homo sapiens, UniProt Q14524); experiment: Late INa screening assay (late sodium current, PatchXpress whole cell patch clamp); format: cell-based; conditions: compound at 10 μM; read-out: Late INa % blk
Sequence (Q14524 whole entry): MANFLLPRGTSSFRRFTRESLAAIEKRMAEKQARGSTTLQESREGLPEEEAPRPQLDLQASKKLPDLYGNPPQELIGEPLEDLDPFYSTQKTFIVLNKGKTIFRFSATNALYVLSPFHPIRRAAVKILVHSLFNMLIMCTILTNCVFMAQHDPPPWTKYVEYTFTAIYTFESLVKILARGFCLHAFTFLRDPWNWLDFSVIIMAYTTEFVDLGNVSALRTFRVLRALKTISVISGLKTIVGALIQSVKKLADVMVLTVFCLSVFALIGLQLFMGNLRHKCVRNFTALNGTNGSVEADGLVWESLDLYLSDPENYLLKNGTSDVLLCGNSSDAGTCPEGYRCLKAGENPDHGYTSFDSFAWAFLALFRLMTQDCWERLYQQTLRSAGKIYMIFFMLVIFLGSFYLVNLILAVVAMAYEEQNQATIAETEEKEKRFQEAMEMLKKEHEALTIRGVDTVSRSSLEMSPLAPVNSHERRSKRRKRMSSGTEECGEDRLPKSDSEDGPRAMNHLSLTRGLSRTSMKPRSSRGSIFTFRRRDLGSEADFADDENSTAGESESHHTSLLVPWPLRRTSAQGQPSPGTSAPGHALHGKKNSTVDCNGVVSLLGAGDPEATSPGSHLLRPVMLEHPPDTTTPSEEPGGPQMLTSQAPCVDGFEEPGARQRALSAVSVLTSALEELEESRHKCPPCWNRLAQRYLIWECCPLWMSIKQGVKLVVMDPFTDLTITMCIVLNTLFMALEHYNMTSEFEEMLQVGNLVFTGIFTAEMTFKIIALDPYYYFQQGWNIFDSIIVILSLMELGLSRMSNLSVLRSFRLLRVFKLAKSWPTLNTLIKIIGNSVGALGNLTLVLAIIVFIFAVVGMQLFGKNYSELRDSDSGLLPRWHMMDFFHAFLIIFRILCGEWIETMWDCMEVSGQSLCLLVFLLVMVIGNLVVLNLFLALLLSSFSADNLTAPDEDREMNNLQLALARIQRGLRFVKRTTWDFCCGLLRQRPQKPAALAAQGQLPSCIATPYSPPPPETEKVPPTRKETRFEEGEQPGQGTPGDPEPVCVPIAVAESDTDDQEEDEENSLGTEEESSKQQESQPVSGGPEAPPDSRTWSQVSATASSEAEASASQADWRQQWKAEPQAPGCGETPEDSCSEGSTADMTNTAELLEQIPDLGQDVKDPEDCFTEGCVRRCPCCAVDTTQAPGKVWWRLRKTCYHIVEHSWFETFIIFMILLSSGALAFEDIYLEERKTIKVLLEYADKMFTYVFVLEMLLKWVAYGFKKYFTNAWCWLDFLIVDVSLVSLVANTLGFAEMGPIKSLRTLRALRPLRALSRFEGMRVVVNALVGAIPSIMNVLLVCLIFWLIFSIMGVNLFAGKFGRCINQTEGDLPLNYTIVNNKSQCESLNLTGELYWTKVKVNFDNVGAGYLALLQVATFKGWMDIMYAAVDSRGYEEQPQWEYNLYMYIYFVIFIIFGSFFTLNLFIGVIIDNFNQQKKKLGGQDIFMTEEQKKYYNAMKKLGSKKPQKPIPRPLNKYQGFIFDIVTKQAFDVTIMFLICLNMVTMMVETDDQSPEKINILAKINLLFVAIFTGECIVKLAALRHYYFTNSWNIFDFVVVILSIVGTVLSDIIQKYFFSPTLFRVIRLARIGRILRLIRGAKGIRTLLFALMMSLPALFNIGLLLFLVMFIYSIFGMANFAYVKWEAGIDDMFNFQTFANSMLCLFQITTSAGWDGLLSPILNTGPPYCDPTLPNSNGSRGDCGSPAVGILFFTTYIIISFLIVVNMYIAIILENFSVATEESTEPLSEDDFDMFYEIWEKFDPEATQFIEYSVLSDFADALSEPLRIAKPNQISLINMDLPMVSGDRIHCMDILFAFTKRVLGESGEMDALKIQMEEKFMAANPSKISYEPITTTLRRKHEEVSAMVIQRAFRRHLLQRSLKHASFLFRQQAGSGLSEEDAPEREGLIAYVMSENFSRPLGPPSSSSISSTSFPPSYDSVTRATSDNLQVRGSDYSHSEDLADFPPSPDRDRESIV

Going from CCOC(=O)CN1C(C)=C(C(=O)OCc2ccccc2)C(c2cccc3ccccc23)n2nnnc21 (stereo not shown) [PT-331, benzyl 4-(2-ethoxy-2-oxoethyl)-5-methyl-7-(naphthalen-1-yl)-4,7-dihydrotetrazolo[1,5-a]pyrimidine-6-carboxylate] to CCOC(=O)C1=C(C)N(Cc2nnn[nH]2)c2nnnn2C1c1cccc2ccccc12 (stereo not shown) [PT-444, ethyl 4-((1H-tetrazol-5-yl)methyl)-5-methyl-7-(naphthalen-1-yl)-4,7-dihydrotetrazolo[1,5-a]pyrimidine-6-carboxylate], the inhibition at 10 µM falls from 29.6% to 9.1%.

First: CCCC1=C(C(=O)OCC)C(c2ccsc2)C2=C(CC(C(C)C)CC2=O)N1 (stereo not shown) [PT-152, ethyl 7-isopropyl-5-oxo-2-propyl-4-(thiophen-3-yl)-1,4,5,6,7,8-hexahydroquinoline-3-carboxylate]
Second: CCCC1=C(C(=O)OCC)C(c2ccc(Br)s2)C(C(=O)OCC)=C(CCC)N1 [PT-182, diethyl 4-(5-bromothiophen-2-yl)-2,6-dipropyl-1,4-dihydropyridine-3,5-dicarboxylate]
The inhibition at 10 µM of the first is higher: 41.2% for the first, 33% for the second.

First: CC1=C(C(=O)OCc2ccccc2)C(c2ccccc2-c2ccc(C(C)O)cc2)n2nnnc2N1 (stereo not shown) [PT-404, benzyl 7-(4′-(1-hydroxyethyl)biphenyl-2-yl)-5-methyl-4,7-dihydrotetrazolo[1,5-a]pyrimidine-6-carboxylate]
Second: COc1cccc(-c2ccccc2[C@@H]2C(C(=O)OCc3ccccc3)=C(C)Nc3nnnn32)c1 [PT-241, (R)-benzyl 7-(3′-methoxybiphenyl-2-yl)-5-methyl-4,7-dihydrotetrazolo[1,5-a]pyrimidine-6-carboxylate]
The inhibition at 10 µM of the first is higher: 80.9% for the first, 77.1% for the second.

First: CCOC(=O)C1=C(C)Nc2nnnn2C1c1cccc(OCc2ccc(C(=O)O)cc2)c1 (stereo not shown) [PT-286, 4-((3-(6-(ethoxycarbonyl)-5-methyl-4,7-dihydrotetrazolo[1,5-a]pyrimidin-7-yl)phenoxy)methyl)benzoic acid]
Second: CCOC(=O)C1=C(C)Nc2nnnn2C1c1cccc(OCc2cccc(C(=O)O)c2)c1 (stereo not shown) [PT-269, 3-((3-(6-(ethoxycarbonyl)-5-methyl-4,7-dihydrotetrazolo[1,5-a]pyrimidin-7-yl)phenoxy)methyl)benzoic acid]
The inhibition at 10 µM of the first is lower: 8.8% for the first, 12.3% for the second.

Going from CC1=C(C(=O)OCc2ccccc2)C(c2ccc(C(=O)O)cc2)n2nnnc2N1 (stereo not shown) [PT-299, 4-(6-(benzyloxycarbonyl)-5-methyl-4,7-dihydrotetrazolo[1,5-a]pyrimidin-7-yl)benzoic acid] to CC1=C(C(=O)OCc2ccccc2)C(c2ccccc2B(O)O)n2nnnc2N1 (stereo not shown) [PT-255, 2-(6-(benzyloxycarbonyl)-5-methyl-4,7-dihydrotetrazolo[1,5-a]pyrimidin-7-yl)phenylboronic acid], the inhibition at 10 µM rises from 6.7% to 20.6%.

Going from CC1=C(C(=O)OCc2cccc(-c3ccccc3)c2)C(c2cccc3ccccc23)n2nnnc2N1 (stereo not shown) [PT-006, biphenyl-3-ylmethyl 5-methyl-7-(naphthalen-1-yl)-4,7-dihydrotetrazolo[1,5-a]pyrimidine-6-carboxylate] to CC1=C(C(=O)OCc2ccccc2-c2ccccc2)C(c2cccc3ccccc23)n2nnnc2N1 (stereo not shown) [PT-005, biphenyl-2-ylmethyl 5-methyl-7-(naphthalen-1-yl)-4,7-dihydrotetrazolo[1,5-a]pyrimidine-6-carboxylate], the inhibition at 10 µM rises from 5.4% to 25.4%.

Going from COc1ccc(C2C(C(=O)OCc3ccccc3)=C(C)Nc3nnnn32)c(OC)c1 (stereo not shown) [PT-385, benzyl 7-(2,4-dimethoxyphenyl)-5-methyl-4,7-dihydrotetrazolo[1,5-a]pyrimidine-6-carboxylate] to CCOC(=O)C1=C(C)Nc2nnnn2C1c1ccccc1OCc1cccc(C(=O)OC)c1 (stereo not shown) [PT-480, ethyl 7-(2-(3-(methoxycarbonyl)benzyloxy)phenyl)-5-methyl-4,7-dihydrotetrazolo[1,5-a]pyrimidine-6-carboxylate], the inhibition at 10 µM falls from 56.5% to 5.4%.

First: CCOC(=O)C1=C(C)N(CC(=O)Nc2c(C)cccc2C)c2nnnn2C1c1ccccc1Br (stereo not shown) [PT-490, ethyl 7-(2-bromophenyl)-4-(2-(2,6-dimethylphenylamino)-2-oxoethyl)-5-methyl-4,7-dihydrotetrazolo[1,5-a]pyrimidine-6-carboxylate]
Second: CCOC(=O)C1=C(C)Nc2nnnn2C1c1ccccc1Oc1ccc(C(=O)OCC)cc1 (stereo not shown) [PT-483, ethyl 7-(2-(4-(ethoxycarbonyl)phenoxy)phenyl)-5-methyl-4,7-dihydrotetrazolo[1,5-a]pyrimidine-6-carboxylate]
The inhibition at 10 µM of the first is lower: 7.3% for the first, 31.8% for the second.

First: CCOC(=O)C1=C(C)NC(C)=C(C(=O)OCC)C1c1ccc([N+](=O)[O-])cc1OC [PT-433, diethyl 4-(2-methoxy-4-nitrophenyl)-2,6-dimethyl-1,4-dihydropyridine-3,5-dicarboxylate]
Second: CCOC(=O)C1=C(C)Nc2[nH]ncc2C1c1c(OC)cccc1OC (stereo not shown) [PT-446, ethyl 4-(2,6-dimethoxyphenyl)-6-methyl-4,7-dihydro-1H-pyrazolo[3,4-b]pyridine-5-carboxylate]
The inhibition at 10 µM of the first is higher: 30.3% for the first, 7% for the second.

First: COC(=O)C1=C(C)Nc2nnnn2C1c1ccc(-c2ccc(OC)cc2)s1 (stereo not shown) [PT-521, methyl 7-(5-(4-methoxyphenyl)thiophen-2-yl)-5-methyl-4,7-dihydrotetrazolo[1,5-a]pyrimidine-6-carboxylate]
Second: CCOC(=O)C1=C(C)Nc2nnnn2C1c1ccccc1-c1cccc(C#N)c1 (stereo not shown) [PT-499, ethyl 7-(3′-cyanobiphenyl-2-yl)-5-methyl-4,7-dihydrotetrazolo[1,5-a]pyrimidine-6-carboxylate]
The inhibition at 10 µM of the first is higher: 37.5% for the first, 27.7% for the second.

First: COC(=O)c1ccc(-c2ccc(COC(=O)C3=C(C)Nc4nnnn4C3c3cccc4ccccc34)cc2)cc1 (stereo not shown) [PT-200, (4′-(methoxycarbonyl)biphenyl-4-yl)methyl 5-methyl-7-(naphthalen-1-yl)-4,7-dihydrotetrazolo[1,5-a]pyrimidine-6-carboxylate]
Second: CC1=C(C(=O)OCc2ccc(-c3nnn[nH]3)cc2)C(c2cccc3ccccc23)n2nnnc2N1 (stereo not shown) [PT-060, 4-(1H-tetrazol-5-yl)benzyl 5-methyl-7-(naphthalen-1-yl)-4,7-dihydrotetrazolo[1,5-a]pyrimidine-6-carboxylate]
The inhibition at 10 µM of the first is higher: 7.4% for the first, 5.6% for the second.

First: CC1=C(C(=O)OCc2ccccc2)C(c2cccc3ncccc23)n2nnnc2N1 (stereo not shown) [PT-038, benzyl 5-methyl-7-(quinolin-5-yl)-4,7-dihydrotetrazolo[1,5-a]pyrimidine-6-carboxylate]
Second: CC1=C(C(=O)OCc2ccccc2)C(c2ccc(C)c3ccccc23)n2nnnc2N1 (stereo not shown) [PT-031, benzyl 5-methyl-7-(4-methylnaphthalen-1-yl)-4,7-dihydrotetrazolo[1,5-a]pyrimidine-6-carboxylate]
The inhibition at 10 µM of the first is lower: 11.9% for the first, 28.6% for the second.

First: CCOC(=O)C1=C(C)Nc2[nH]ncc2C1c1cccc2ccccc12 (stereo not shown) [PT-075, ethyl 6-methyl-4-(naphthalen-1-yl)-4,7-dihydro-1H-pyrazolo[3,4-b]pyridine-5-carboxylate]
Second: CC1=C(C(=O)N2CCCCC2)C(c2cccc3ccccc23)C2=C(CCCC2=O)N1 (stereo not shown) [PT-265, 2-methyl-4-(naphthalen-1-yl)-3-(piperidine-1-carbonyl)-4,6,7,8-tetrahydroquinolin-5(1H)-one]
The inhibition at 10 µM of the first is higher: 26.5% for the first, 18.6% for the second.

Compared with CCOC(=O)C1=C(C)Nc2nnnn2C1c1ccccc1-n1cncn1 (stereo not shown) [PT-475, ethyl 7-(2-(1H-1,2,4-triazol-1-yl)phenyl)-5-methyl-4,7-dihydrotetrazolo[1,5-a]pyrimidine-6-carboxylate], CC1=C(C(=O)OCc2ccccc2)C(c2ccc3c(c2)OCCO3)n2nnnc2N1 (stereo not shown) [PT-035, benzyl 7-(2,3-dihydrobenzo[b][1,4]dioxin-6-yl)-5-methyl-4,7-dihydrotetrazolo[1,5-a]pyrimidine-6-carboxylate] is higher in inhibition at 10 µM: 5.5% for the first, 44% for the second.

First: CC1=C(C(=O)OCc2ccccc2)C(c2cccc(-c3ccccc3)c2)n2nnnc2N1 (stereo not shown) [PT-026, benzyl 7-(biphenyl-3-yl)-5-methyl-4,7-dihydrotetrazolo[1,5-a]pyrimidine-6-carboxylate]
Second: CC1=C(C(=O)OCc2ccccc2)C(c2ccccc2-c2cccc(C(=O)O)c2)n2nnnc2N1 (stereo not shown) [PT-253, 2′-(6-(benzyloxycarbonyl)-5-methyl-4,7-dihydrotetrazolo[1,5-a]pyrimidin-7-yl)biphenyl-3-carboxylic acid]
The inhibition at 10 µM of the first is higher: 10.3% for the first, 9.1% for the second.

Compared with CC1=C(C(=O)OCc2ccccc2)C(c2ccccc2-c2cccc(C(F)(F)F)c2)n2nnnc2N1 (stereo not shown) [PT-349, benzyl 5-methyl-7-(3′-(trifluoromethyl)biphenyl-2-yl)-4,7-dihydrotetrazolo[1,5-a]pyrimidine-6-carboxylate], CC1=C(C(=O)OCc2ccccc2)C(c2ccc(C(F)(F)F)cc2C(F)(F)F)n2nnnc2N1 (stereo not shown) [PT-384, benzyl 7-(2,4-bis(trifluoromethyl)phenyl)-5-methyl-4,7-dihydrotetrazolo[1,5-a]pyrimidine-6-carboxylate] is lower in inhibition at 10 µM: 77.3% for the first, 29.4% for the second.

First: CCOC(=O)C1=C(C)OC(N)=C(C#N)C1c1ccco1 (stereo not shown) [PT-092, ethyl 6-amino-5-cyano-4-(furan-2-yl)-2-methyl-4H-pyran-3-carboxylate]
Second: CC1=C(C(=O)OCc2ccccc2)C(c2ccccc2)C2=C(CCCC2=O)N1 (stereo not shown) [PT-323, benzyl 2-methyl-5-oxo-4-phenyl-1,4,5,6,7,8-hexahydroquinoline-3-carboxylate]
The inhibition at 10 µM of the first is lower: -0.2% for the first, 48.9% for the second.

Going from CC1=C(C(=O)N2CCC(c3cccc(C(=O)O)c3)CC2)C(c2cccc3ccccc23)C2=C(CCCC2=O)N1 (stereo not shown) [PT-172, 3-(1-(2-methyl-4-(naphthalen-1-yl)-5-oxo-1,4,5,6,7,8-hexahydroquinoline-3-carbonyl)piperidin-4-yl)benzoic acid] to COc1ccc(C2C(C(=O)OCc3ccc(Cn4cccn4)cc3)=C(C)Nc3nnnn32)c2ccccc12 (stereo not shown) [PT-284, 4-((1H-pyrazol-1-yl)methyl)benzyl 7-(4-methoxynaphthalen-1-yl)-5-methyl-4,7-dihydrotetrazolo[1,5-a]pyrimidine-6-carboxylate], the inhibition at 10 µM rises from 16.3% to 49.5%.

same assay, conditions: read-out: Late INa % blk

For CCOC(=O)C1=C(C)Nc2c(C#N)cnn2C1c1cccc2ccccc12 (stereo not shown) [PT-091, ethyl 3-cyano-5-methyl-7-(naphthalen-1-yl)-4,7-dihydropyrazolo[1,5-a]pyrimidine-6-carboxylate], the inhibition at 10 µM was 48.4%.
